The subject of one assay is BXSB mice. More on the design: method as in PMID 24445960. The conditions noted are these: cited from earlier work.
Assay [1] relates to NZB/W F1 mice. Description: Lymphocyte subsets in spleen at end of treatment, accelerated NZB/W F1 SLE model. In kind it is in vivo, mouse. The conditions noted are these: MMF 300 mg/kg once daily, early intervention. Here is the method: (§1) All protocols and procedures were conducted according to German animal protection law (Tierschutzgesetz) and were approved by the local veterinarian authorities (Regierungspräsidium, Darmstadt, Germany). Ten-week-old female NZB/W F1 mice (Jackson Laboratories, Bar Harbor, ME, USA) were given a single i.v. injection of 1 × 10^8 IU/100 μl of AdV-IFN-α (adenovirus with mmIfna5_v1 insert, Biofocus, CoA.NL.09.160) in saline or left untreated (sham). Drug treatments were either initiated at 2 weeks (early intervention regimen) or 4 weeks (late intervention regimen) post AdV-IFN-α delivery until the end of the experiment (at 10 weeks). […] Serum and urine samples were collected for anti-dsDNA antibodies (by ELISA) and urinary protein creatinine ratio (UPCR) (measured by ADVIA 1800) determination, respectively, on the days indicated. Proteinuria is defined as UPCR >3.

The test system of assay [2] is NZB/W F1 mice. Description: IFNα-accelerated NZB/W F1 mouse SLE model. Format: in vivo. Here is the method:
as §1

The subject of the next assay is CD69 on B220+ B cells. As to the kind of experiment: Ex vivo anti-IgD-induced CD69 up-regulation in the SLE model. More on the design: species or system mouse. Particulars: once daily for 2 weeks, 1 h after last dosing.

The structures appear in SMILES notation.

In the case of `Cc1ccccc1-n1c(Cn2cnc3c(N)ncnc32)nc2cccc(C)c2c1=O` [IC87114], the “Autoantibody production and kidney pathology” value in the assay on BXSB mice was “decreases autoantibody production and kidney pathology”.

With `COc1c(C)c2c(c(O)c1C/C=C(\C)CCC(=O)OCCN1CCOCC1)C(=O)OC2` [MMF, mycophenolate mofetil], in the assay on NZB/W F1 mice [1], the “No. of cells (×10^6) (mean ± SD): B220^+CD19^+ (total B cells)” value is 20.65 (±6.54) ×10^6, the “No. of cells (×10^6) (mean ± SD): CD3^+ (total T-cells)” value is on record as 21.05 (±6.83) ×10^6, the “No. of cells (×10^6) (mean ± SD): CD138^+ (plasma cells)” value is 0.43 (±0.28) ×10^6 and the “No. of cells (×10^6) (mean ± SD): GL-7^+IgG^− (GC B cells)” value was 0.23 (±0.16) ×10^6. Moreover, in the assay with NZB/W F1 mice [1], the “No. of cells (×10^6) (mean ± SD): IgG^+ (class-switched B cells)” value was 0.17 (±0.05) ×10^6, the “No. of cells (×10^6) (mean ± SD): Total splenocytes” value is recorded as 46.50 (±25.17) ×10^6, the “No. of cells (×10^6) (mean ± SD): activated CD4^+ T-cells” value is 5.24 (±2.05) ×10^6 and the “No. of cells (×10^6) (mean ± SD): activated CD8^+ T-cells” value is recorded as 0.23 (±0.09) ×10^6. For the same compound, the Protection against proteinuria result in the assay on NZB/W F1 mice [2] (early intervention, MSC2360844 66 mg/kg or MMF 300 mg/kg once daily oral) is reported as “almost completely protected against proteinuria”. The “Serum anti-dsDNA IgG” value in the assay with NZB/W F1 mice [2] (early treatment, neither statistically significant nor dose-dependent) is given as “tendency of serum anti-dsDNA IgG reduction”. Besides, the “Ex vivo anti-IgD-induced CD69 surface expression on B220+ B cells” value with CD69 on B220+ B cells is recorded as “indistinguishable from untreated mice”.

The values are drawn from publication PMC4033217, “Characterization of Novel PI3Kδ Inhibitors as Potential Therapeutics for SLE and Lupus Nephritis in Pre-Clinical Studies” (Frontiers in Immunology, 2014).
